According to the SangsterLogP compilation:

Assay: method code SF, from Hansch, C. & Leo, A. (1987). Log P database [Dataset]. Pomona College Medicinal Chemistry Project.

Row | SMILES | logP | further results
1 | CC(=O)Nc1cccc(I)c1 | 2.64 | –
2 | O=Cc1cccs1 | 1.02 | –
3 | O=[N+]([O-])c1cn[nH]c1 | 0.59 | –
4 | CS(=O)(=O)c1ccc(Cl)cc1 | – | logD (pH 7.0): 1.06
5 | Cc1ccc(/C=C/[N+](=O)[O-])cc1 | 2.66 | –
6 | CO[C@H]1[C@@H](O)[C@@H](C)O[C@H](O[C@H]2[C@H](Oc3cccc4c(O)c5c(=O)oc6ccc(C)c7c(=O)oc(c34)c5c67)O[C@H](C)[C@H](O)[C@@H]2O)[C@@H]1O | – | logD (pH 7.0): 1.8
7 | CC(=O)c1ccccc1OC(=O)N(C)C | 0.93 | –
8 | CCc1ccccc1NC(C)=O | 1.33 | –
9 | NCc1cccnc1 | – | logD (pH 11.0): -0.1
10 | CC(=O)c1ccccc1O | 1.88 | –
11 | COC(=O)C[C@](O)(CCCC(C)(C)O)C(=O)OC1C(OC)=C[C@]23CCCN2CCc2cc4c(cc2[C@H]13)OCO4 (stereo partly drawn) | 0.82 | –
12 | NC(=O)C(=Cc1ccccc1)C(N)=O | -0.13 | –
13 | COc1cccc(OC)c1 | 2.21 | –
14 | CC(=S)Nc1ccccc1 | 1.71 | –
15 | CNC(=O)Oc1cc(C)c(C)cc1C | 2.52 | –
16 | CCc1ccsc1 | 2.82 | –
17 | CCOC(=O)C(O)c1ccccc1 (stereo not drawn) | 1.53 | –
18 | CCCCCN(CCCCC)/N=C/c1c2c(O)c3c(O)c(C)c4c(c3c1O)C(=O)C(C)(O/C=C\C(OC)C(C)C(OC(C)=O)C(C)C(O)C(C)C(O)C(C)/C=C\C=C(C)C(=O)N2)O4 (stereo not drawn) | 3.47 | –
19 | NC1=NC(C(F)(F)F)(C(F)(F)F)NC1(C(F)(F)F)C(F)(F)F | 3.35 | –
20 | CC=NO | -0.13 | –
21 | c1cncc(CCN2CCCCC2)c1 | – | logD (pH 11.0): 1.66
22 | Cc1ccc2c(ccc[n+]2[O-])c1 | 0.95 | –
23 | COC(=O)c1cccc(NC(C)=O)c1 | 1.46 | –
24 | c1ccc2c(c1)nnc1ccccc12 | 2.71 | –
25 | N#CN=[N+]([O-])c1cccc([N+](=O)[O-])c1 | 1.45 | –
26 | CC(=O)C(=Cc1ccccc1Cl)C(C)=O | 2.19 | –

Row | SMILES | logP | further results
27 | O=C(O)c1cc(=O)c2ccccc2o1 | – | logD (pH 0.7): 1.63
28 | Nc1nc(N)c2ccccc2n1 | – | logD (pH 13.0): 1
29 | N#CN=[N+]([O-])c1cccc(C#N)c1 | 1.15 | –
30 | O=c1cc2ccccc2n[nH]1 | 0.68 | –
31 | CC(=O)CCN(C)c1ccc(S(=O)(=O)N(C)C)cc1 | 0.23 | –
32 | CN(C)/N=N/c1ccccc1CO | – | logD (pH 12.0): 1.73
33 | O=C(O)COc1ccccc1-c1ccccc1 | 2.83 | –
34 | CCOC(=O)C(=Cc1cccc(C)c1)C(=O)OCC | 3.55 | –
35 | CCC(=O)OCC(=O)[C@@]1(OC(=O)CC)[C@H](C)C[C@H]2[C@@H]3C[C@H](F)C4=CC(=O)C(Cl)=C[C@]4(C)[C@@]3(F)[C@@H](O)C[C@@]21C | 4.22 | –
36 | N#Cc1c[nH]c2ccccc12 | 2.32 | –
37 | C=C(F)F | 1.24 | –
38 | c1cnc2nccnc2c1 | -0.04 | –
39 | N#Cc1cccc(N)c1 | 1.07 | –
40 | CCN(CC)CC(O)c1ccccc1 (stereo not drawn) | – | logD (pH 13.0): 2.02
41 | CNCc1ccccc1 | – | logD (pH 13.0): 1.52
42 | Cc1csc(N=C(N)N)n1 | 1.24 | –
43 | CC(=O)NCc1ccccc1 | 0.95 | –
44 | N=c1ccn2c(n1)OC1C(O)C(CO)OC12 (stereo not drawn) | – | logD (pH 11.0): -2.37
45 | CCCOc1cn[nH]c1 | 1.42 | –
46 | c1cscn1 | 0.44 | –
47 | OCc1cccs1 | 0.87 | –
48 | O=C1C(=O)c2cccc3cccc1c23 | 1.95 | –
49 | CC(=O)Oc1ccccc1Cl | 2.18 | –
50 | OC/C=C/c1ccccc1 | 1.95 | –
51 | CN(C)C(=O)Cc1cccs1 | 0.65 | –
52 | O=C1c2ccccc2C(=O)C1(O)O | 0.67 | –

Row | SMILES | logP | further results
53 | CCCCCCCNC(=O)c1ccccc1 | 2.94 | –
54 | COc1ccc2ncccc2c1 | 2.2 | –
55 | CP(C)c1ccccc1 | 2.57 | –
56 | CO[C@H]1/C=C\O[C@@]2(C)Oc3c(C)c(O)c4c(O)c(c(/C=N/OCCCc5ccccc5)c(O)c4c3C2=O)NC(=O)/C(C)=C\C=C/[C@H](C)[C@H](O)[C@@H](C)[C@@H](O)[C@@H](C)[C@H](OC(C)=O)[C@@H]1C | 4.83 | –
57 | O=C(O)CNc1ccccc1 | 0.62 | –
58 | CCCOC(=O)c1cccnc1 | – | logD (pH 7.0): 1.94
59 | CCCN(CCC)S(=O)(=O)c1ccc(C(=O)O)cc1 | – | logD (pH 1.0): 3.21
60 | CC(=O)OCCOC(=O)c1ccccc1 | 1.85 | –
61 | CCOC(=O)c1ccccn1 | 0.88 | –
62 | CCN(CC)c1c(C)n(CC)c(=O)n(-c2ccccc2)c1=O | – | logD (pH 7.4): 2.2
63 | CCOC(=O)[C@H](O)[C@@H](O)C(=O)OCC | -0.29 | –
64 | CC(C)(Cc1ccccc1)NC(=O)N(CCCl)N=O | 3.73 | –
65 | NC(=O)c1ccc(N)nc1 | – | logD (pH 7.0): 0.7
66 | O=S(=O)(Cc1ccccc1)c1ccccc1 | 2.05 | –
67 | CN(C(=O)CCSC#N)c1ccc(S(=O)(=O)N(C)C)cc1 | 0.84 | –
68 | Cc1ccc(Cc2c[nH]c(NCCCCc3ccc(Br)cc3C)nc2=O)cn1 | 3.61 | –
69 | CSc1ncnc2c1ncn2[C@@H]1O[C@H](CO)[C@@H](O)[C@@H]1O | 0.09 | –
70 | O=C1C(N2CCN(CCO)CC2)=C(N2CC2)C(=O)C(N2CCN(CCO)CC2)=C1N1CC1 | -0.73 | –
71 | O=C(O)COc1ccc(Cl)c(C(=O)O)c1 | 1.07 | –
72 | NS(=O)(=O)NS(=O)(=O)Nc1ccccc1 | 0.02 | –
73 | CC(=O)Sc1ccccc1 | 2.23 | –
74 | COc1cc(S(C)=O)ccc1-c1nc2ccccc2[nH]1 (stereo not drawn) | – | logD (pH 8.0): 1.17
75 | NC(=O)c1cccc([N+](=O)[O-])c1 | 0.77 | –
76 | COc1ccc2[nH]c(CCCCc3nc4cc(OC)ccc4[nH]3)nc2c1 | 1.42 | –
77 | NC(=O)CBr | -0.52 | –
78 | OCc1cccc(C(F)(F)F)c1 | 2.24 | –

Row | SMILES | logP | further results
79 | O=C(c1ccncc1)c1ccccc1O | 2.13 | –
80 | CC(C)CC(CC(C)C)OC(=O)c1ccc(NC(=O)N(C)C)cc1Cl | 5.15 | –
81 | COC1OCC(O)C(NC(=O)N(C)N=O)C1O (stereo not drawn) | – | logD (pH 7.4): -1.08
82 | CNC(N)=NC#N | -0.77 | –
83 | CC(=O)OCC1=C(C(=O)O)N2C(=O)C(NC(=O)Cc3ccccc3)C2SC1 (stereo not drawn) | – | logD (pH 3.0): 0.2
84 | COc1cc(OC)c(OC)cc1CC(C)N (stereo not drawn) | 1.74 | –
85 | CO[C@H]1C=CO[C@@]2(C)Oc3c(C)c(O)c4c(O)c(c(CN5CCN(C)CC5)c(O)c4c3C2=O)NC(=O)/C(C)=C\C=C/[C@@H](C)[C@@H](O)[C@@H](C)[C@H](O)[C@H](C)[C@@H](OC(C)=O)[C@H]1C | 1.76 | –
86 | Nc1nc(S)c2ncn(C3CC(O)C(CO)O3)c2n1 (stereo not drawn) | – | logD (pH 7.4): -0.56
87 | CC(=O)c1ccccc1Cl | 2.09 | –
88 | CC1OC(C)OC(C)O1 (stereo not drawn) | – | logD (pH 7.5): 0.67
89 | Brc1cccc(Br)c1 | 3.75 | –
90 | N#Cc1ccc(OC(=O)CNC(=O)c2ccccc2)cc1 | 2.1 | –
91 | ClC(Cl)=C(Cl)Cl | 3.4 | –
92 | CC(C)(C)[N+](=O)[O-] | 1.01 | –
93 | C=C(C)C | 2.34 | –
94 | CNc1ccccc1[N+](=O)[O-] | 2.18 | –
95 | CNC=CCCc1cccnc1 | – | logD (pH 11.0): 1.13
96 | COc1ccc(C(N)=O)cc1/N=N/N(C)C | 0.44 | –
97 | Cc1nnc2n1-c1sc(Br)cc1C(c1ccccc1Cl)=NC2 | 2.79 | –
98 | CNC(=O)Oc1cc(C)c(Cl)cc1Cl | 3 | –
99 | Cc1ccc(C=C(C#N)C#N)cc1 | 2.4 | –
100 | CCCCOc1ccc(C(N)=O)cc1 | 2.48 | –
101 | CCNC(=O)CBr | 0.34 | –
102 | CNC(=O)Oc1cc(C)c(Cl)cc1C | 2.95 | –
103 | O=S1(=O)Nc2ccccc2N1 | 1.12 | –
104 | CN(C(=O)c1ccccc1)c1ccccc1 | 2.36 | –

Row | SMILES | logP | further results
105 | Cc1ccccc1/C=N/O | 2.53 | –
106 | c1cc2n(n1)CCN2 | – | logD (pH 7.4): -0.25
107 | CC(C)CO | 0.65 | –
108 | CCCCC1OC(=O)c2cc(Cl)ccc21 (stereo not drawn) | 3.53 | –
109 | O=[N+]([O-])c1ccc2cccnc2c1 | 1.82 | –
110 | CN(C)CCc1cccs1 | 1.99 | –
111 | CN(C)/N=N/c1cc(C#N)cc(C#N)c1 | 2.18 | –
112 | CC(=O)c1ccc(C#N)cc1 | – | logD (pH 7.0): 1.22
113 | Cn1nnnc1SCc1ccccc1 | 1.63 | –
114 | CC(=O)CCC(=O)N(C)c1ccc(S(=O)(=O)N(C)C)cc1 | 0.2 | –
115 | CC(F)F | 0.75 | –
116 | COc1ccccc1CO | – | logD (pH 7.0): 1.13
117 | O=C(O)c1nccc2ccccc12 | – | logD (pH 2.0): -0.53
118 | CC(=O)c1cccc(C(C)=O)c1 | – | logD (pH 7.0): 1.43
119 | C=C(C)C1Cc2c(ccc3c2OC2COc4cc(OC)c(OC)cc4C2C3=O)O1 (stereo not drawn) | 4.1 | –
120 | COc1ccccc1N | 1.18 | –
121 | Nc1nc(=O)c2ccccc2o1 | 0.27 | –
122 | CN(C)C(=O)Nc1ccc(C(C)(C)C)cc1 | 3.1 | –
123 | O=S(Cc1ccccn1)c1nc2ccccc2[nH]1 (stereo not drawn) | – | logD (pH 5.0): 1.33
124 | C1COCCO1 | -0.27 | –
125 | CC(=O)Nc1cccc(C(C)=O)c1 | 1.1 | –
126 | O=c1[nH]c(=O)n([C@H]2C[C@H](O)[C@@H](CO)O2)cc1C(F)(F)F | -0.46 | –
127 | CCOCCOC(=O)C(C#N)=C(CC)Nc1ccc([N+](=O)[O-])cc1 | 2.6 | –
128 | CC1=Nc2cc(Cl)ccc2S(=O)(=O)N1 | 1.21 | –
129 | CCN(CC)c1c(C)n(-c2ccccc2)c(=O)n(CC)c1=O | – | logD (pH 7.4): 2.78
130 | c1ccc2c(c1)CCC2 | 3.33 | –

Row | SMILES | logP | further results
131 | CC(=O)Nc1ccc(C(C)=O)cc1 | 1.24 | –
132 | CN(Cc1ccccc1)c1ccccc1 | – | logD (pH 13.0): 4.22
133 | O=S1(=O)NC(c2ccco2)=Nc2ccccc21 | 1.06 | –
134 | NC(=O)NC1OC(=O)c2ccccc21 (stereo not drawn) | 0.49 | –
135 | CC(=O)NC1CCSC1=O (stereo not drawn) | -0.35 | –
136 | [O-][n+]1ccccc1SCc1ccccc1 | 1.24 | –
137 | COC(=O)CNC(=O)c1ccc([N+](=O)[O-])cc1 | 0.98 | –
138 | CCCCC1OC(=O)c2ccccc21 (stereo not drawn) | 2.8 | –
139 | CCC(C)NC(=O)/C(Cl)=C\c1ccccc1 (stereo not drawn) | 3.52 | –
140 | CSc1ccccc1NC(C)=O | 1.53 | –
141 | c1ccc(OCCOc2ccccc2)cc1 | 3.81 | –
142 | Oc1ccccc1/C=N/c1ccccc1 | 3.09 | –
143 | CC(=O)Nc1cccc(OCc2cccc(N3C(N)=NC(N)=NC3(C)C)c2)c1 | – | logD (pH 13.0): 1.15
144 | Cc1c(Cl)c(Cl)c(Cl)c(Cl)c1Cl | 5.62 | –
145 | CCC(C)NC(=O)/C=C/c1ccccc1 (stereo not drawn) | 2.85 | –
146 | CC1(C)Oc2c(O)cccc2C1=O | 1.87 | –
147 | CN(C)C(=O)Nc1ccc(OCc2ccc(Cl)cc2Cl)cc1 | 4.1 | –
148 | CC(=O)Oc1ccc([N+](=O)[O-])cc1 | 1.5 | –
149 | COC(=O)c1ccc(C(=O)OC)cc1 | – | logD (pH 7.0): 2.25
150 | CSC(=O)Nc1ccc(Cl)c(Cl)c1 | 4.23 | –
151 | O=C(Nc1ccccc1)Nc1ccc(Cl)c(Cl)c1 | 4.7 | –
152 | C=CC(=O)c1ccccc1 | 1.88 | –
153 | O=c1[nH]c(=O)c2[nH]cnc2[nH]1 | -0.73 | –
